Source: ChEMBL document CHEMBL3813651, “Structure-activity relationships of dibenzoylhydrazines for the inhibition of P-glycoprotein-mediated quinidine transport” (Bioorg Med Chem, 2016)

Tests used:
[1] = biological target: T1, P-glycoprotein (ABCB1) (Homo sapiens, UniProt P08183); assay: Inhibition of human P-glycoprotein transfected in pig LLC-GA5-COL150 cells assessed as quinidine transport from apical to basolateral side at 30 uM preincubated for 30 mins followed by quinidine addition to apical side measured after 60 mins; type: cell-based; settings: LLC-PK1, probe quinidine
[2] = biological target: ATP-dependent translocase ABCB1 (Homo sapiens, UniProt P08183); assay: Inhibition of human P-glycoprotein transfected in pig LLC-GA5-COL150 cells assessed as quinidine transport from apical to basolateral side preincubated for 30 mins followed by quinidine addition to apical side measured after 60 mins; type: cell-based; parameters: log(activity): scale not given here; settings: for log(activity): human, llc-ga5-col150, 1 h
[3] = Lipophilicity , logP of the compound; type: physicochemical; settings: octanol/water
[4] = biological target: T1, P-glycoprotein (ABCB1); assay: Inhibition of human P-glycoprotein transfected in pig LLC-GA5-COL150 cells assessed as quinidine transport from apical to basolateral side at 2 uM preincubated for 30 mins followed by quinidine addition to apical side measured after 60 mins; settings: LLC-PK1, probe quinidine

T1 sequence (P08183 whole entry): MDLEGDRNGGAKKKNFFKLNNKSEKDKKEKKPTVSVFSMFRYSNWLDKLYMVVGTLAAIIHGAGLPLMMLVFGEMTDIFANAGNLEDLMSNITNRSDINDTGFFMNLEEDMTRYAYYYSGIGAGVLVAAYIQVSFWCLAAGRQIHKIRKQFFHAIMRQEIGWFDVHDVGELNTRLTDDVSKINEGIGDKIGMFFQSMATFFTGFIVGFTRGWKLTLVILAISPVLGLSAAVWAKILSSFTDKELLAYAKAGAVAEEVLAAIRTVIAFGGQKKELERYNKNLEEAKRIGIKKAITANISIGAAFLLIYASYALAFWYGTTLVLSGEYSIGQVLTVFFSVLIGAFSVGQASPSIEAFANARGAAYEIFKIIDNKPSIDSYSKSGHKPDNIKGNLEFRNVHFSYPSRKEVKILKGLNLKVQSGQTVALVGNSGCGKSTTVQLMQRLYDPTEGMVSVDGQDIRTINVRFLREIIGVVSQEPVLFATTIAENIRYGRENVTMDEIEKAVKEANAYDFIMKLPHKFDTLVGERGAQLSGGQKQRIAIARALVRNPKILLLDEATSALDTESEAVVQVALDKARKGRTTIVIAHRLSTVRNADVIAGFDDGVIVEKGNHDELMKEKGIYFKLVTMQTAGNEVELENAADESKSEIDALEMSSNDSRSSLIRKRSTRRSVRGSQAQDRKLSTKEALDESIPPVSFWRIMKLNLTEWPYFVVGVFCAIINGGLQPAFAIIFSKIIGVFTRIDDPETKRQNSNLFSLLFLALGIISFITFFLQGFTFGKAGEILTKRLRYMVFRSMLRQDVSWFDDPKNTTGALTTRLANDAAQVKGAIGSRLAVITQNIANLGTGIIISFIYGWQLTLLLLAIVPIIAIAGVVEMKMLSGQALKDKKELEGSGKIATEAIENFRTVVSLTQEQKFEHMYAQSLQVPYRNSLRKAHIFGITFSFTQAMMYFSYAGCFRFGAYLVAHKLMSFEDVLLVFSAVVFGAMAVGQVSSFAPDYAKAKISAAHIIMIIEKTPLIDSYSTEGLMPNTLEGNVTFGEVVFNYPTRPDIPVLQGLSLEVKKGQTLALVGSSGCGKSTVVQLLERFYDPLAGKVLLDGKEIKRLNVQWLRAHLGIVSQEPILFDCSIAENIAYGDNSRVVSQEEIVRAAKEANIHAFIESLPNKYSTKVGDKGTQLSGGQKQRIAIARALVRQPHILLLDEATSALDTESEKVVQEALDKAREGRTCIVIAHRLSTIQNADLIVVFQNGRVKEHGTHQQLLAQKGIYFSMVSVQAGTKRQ
Chain of ATP-dependent translocase ABCB1 (P08183 whole entry): as above

SMILES | inhibition at 1 h, 30 µM [1] [%] | log(activity) [2] | IC50 [2] [µM] | logP [3] | inhibition at 1 h, 2 µM [4] [%]
CC(C)(C)N(NC(=O)c1ccccc1)C(=O)c1ccccc1Cl | 5.4 | -1.25 |  |  | 
Cc1cc(C)cc(C(=O)N(NC(=O)c2ccccc2)C(C)(C)C)c1 | 17 | -0.69 | 100 |  | 
Cc1cc(C)cc(C(=O)N(NC(=O)c2cccc(C)c2C)C(C)(C)C)c1 | 41.1 | -0.16 |  | 4.43 | 
Cc1cc(C)cc(C(=O)N(NC(=O)c2ccc(Cl)cc2)C(C)(C)C)c1 | 14.2 | -0.78 |  | 4.31 | 
CC(C)(C)N(NC(=O)c1ccccc1F)C(=O)c1ccccc1Cl | 5.9 | -1.21 |  |  | 
CC(C)(C)N(NC(=O)c1cccc(Cl)c1)C(=O)c1ccccc1Cl | 27.3 | -0.43 | 45.7 |  | 
CCCc1ccc(C(=O)NN(C(=O)c2ccccc2Cl)C(C)(C)C)cc1 | 48.7 | -0.02 |  |  | 
COc1ccc(C(=O)NN(C(=O)c2ccccc2Cl)C(C)(C)C)cc1 | 6.9 | -1.13 |  |  | 
CC(=O)c1ccc(C(=O)NN(C(=O)c2ccccc2Cl)C(C)(C)C)cc1 | 5.3 | -1.25 |  |  | 
CC(C)(C)N(NC(=O)c1c(F)cccc1F)C(=O)c1ccccc1Cl | 4.2 | -1.36 |  | 2.35 | 
CC(C)(C)N(NC(=O)c1ccc(C#N)cc1)C(=O)c1ccccc1Cl | 4.9 | -1.29 |  |  | 
Cc1ccc(C(=O)NN(C(=O)c2ccccc2Cl)C(C)(C)C)cc1 | 7.3 | -1.1 |  |  | 
CCc1ccc(C(=O)NN(C(=O)c2ccccc2Cl)C(C)(C)C)cc1 | 23 | -0.52 |  |  | 
CC(C)(C)N(NC(=O)c1cccc(Cl)c1Cl)C(=O)c1ccccc1Cl | 45 | -0.09 |  | 3.75 | 
Cc1cccc(C(=O)NN(C(=O)c2ccccc2Cl)C(C)(C)C)c1C | 9.3 | -0.99 |  | 3.4 | 
COc1cccc(C(=O)NN(C(=O)c2ccccc2Cl)C(C)(C)C)c1C | 12.2 | -0.86 |  | 3.46 | 
Cc1ccc(C)c(C(=O)NN(C(=O)c2ccccc2Cl)C(C)(C)C)c1 | 26.8 | -0.44 | 73.6 | 3.4 | 
Cc1ccc(C(=O)NN(C(=O)c2ccccc2Cl)C(C)(C)C)cc1C | 20.8 | -0.58 |  | 3.65 | 
COc1cccc(C(=O)NN(C(=O)c2cc(C)cc(C)c2)C(C)(C)C)c1 | 34.2 | -0.28 | 58.1 | 3.75 | 
Cc1ccc(C(=O)NN(C(=O)c2cc(C)cc(C)c2)C(C)(C)C)cc1 | 30.9 | -0.35 |  | 3.95 | 

SMILES | inhibition at 1 h, 30 µM [1] [%] | log(activity) [2] | IC50 [2] [µM] | logP [3] | inhibition at 1 h, 2 µM [4] [%]
CC(C)(C)N(NC(=O)c1ccccc1Cl)C(=O)c1ccccc1Cl | 5.3 | -1.25 |  |  | 
CC(C)(C)N(NC(=O)c1ccccc1Br)C(=O)c1ccccc1Cl | 10.1 | -0.95 |  | 2.91 | 
CC(C)(C)N(NC(=O)c1ccccc1I)C(=O)c1ccccc1Cl | 21.8 | -0.55 |  | 3.11 | 
CC(C)(C)N(NC(=O)c1cccc(F)c1)C(=O)c1ccccc1Cl | 7.6 | -1.08 |  |  | 
CC(C)(C)N(NC(=O)c1cccc(Br)c1)C(=O)c1ccccc1Cl | 33 | -0.31 |  | 3.62 | 
CC(C)(C)N(NC(=O)c1cccc(C#N)c1)C(=O)c1ccccc1Cl | 9.5 | -0.98 |  | 2.48 | 
Cc1cccc(C(=O)NN(C(=O)c2ccccc2Cl)C(C)(C)C)c1 | 11.5 | -0.89 |  |  | 
COc1cccc(C(=O)NN(C(=O)c2ccccc2Cl)C(C)(C)C)c1 | 10.8 | -0.92 |  | 2.81 | 
CC(C)(C)N(NC(=O)c1ccc(F)cc1)C(=O)c1ccccc1Cl | 4.8 | -1.3 |  |  | 
CC(C)(C)N(NC(=O)c1ccc(C(F)(F)F)cc1)C(=O)c1ccccc1Cl | 16.2 | -0.71 |  |  | 
CC(C)(C)N(NC(=O)c1c(F)cccc1Cl)C(=O)c1ccccc1Cl | 6.9 | -1.13 |  | 2.67 | 
Cc1cc(C)cc(C(=O)N(NC(=O)c2ccc(F)c(F)c2F)C(C)(C)C)c1 | 2.5 |  |  | 3.64 | 
COc1ccccc1C(=O)NN(C(=O)c1ccccc1Cl)C(C)(C)C | 6.7 | -1.14 |  | 2.37 | 
CC(C)(C)N(NC(=O)c1cc(Cl)ccc1Cl)C(=O)c1ccccc1Cl | 44.2 | -0.1 | 46.7 | 3.75 | 
CCOc1cccc(C(=O)NN(C(=O)c2cc(C)cc(C)c2)C(C)(C)C)c1 | 50.9 | 0.02 | 39.9 | 4.28 | 
CC(C)(C)N(NC(=O)c1cccc(I)c1)C(=O)c1ccccc1Cl | 63.9 | 0.25 |  | 3.87 | 
CC(C)(C)N(NC(=O)c1cc(Cl)cc(Cl)c1)C(=O)c1ccccc1Cl | 97.2 |  |  | 4.29 | 
Cc1cc(C)cc(C(=O)N(NC(=O)c2ccc(C(F)(F)F)cc2)C(C)(C)C)c1 | 0.9 |  |  | 4.66 | 
CC(C)(C)N(NC(=O)c1c(Cl)cccc1Cl)C(=O)c1ccccc1Cl | 5.8 | -1.21 |  | 3.03 | 
CSc1ccccc1C(=O)NN(C(=O)c1ccccc1Cl)C(C)(C)C | 7 | -1.13 |  | 2.84 | 

SMILES | inhibition at 1 h, 30 µM [1] [%] | log(activity) [2] | IC50 [2] [µM] | logP [3] | inhibition at 1 h, 2 µM [4] [%]
CCCc1ccc(C(=O)NN(C(=O)c2cc(C)cc(C)c2)C(C)(C)C)cc1 | 58.4 | 0.15 | 15.2 | 4.86 | 
CC(C)(C)N(NC(=O)c1ccccc1-c1ccccc1)C(=O)c1ccccc1Cl | 80.3 | 0.61 | 12.5 | 3.77 | 
Cc1cc(C)cc(C(=O)N(NC(=O)c2cccc(O)c2C)C(C)(C)C)c1 | 0.5 |  |  | 3.84 | 
Cc1cc(C)cc(C(=O)NN(C(=O)c2ccccc2Cl)C(C)(C)C)c1 | 22.4 | -0.54 |  | 3.67 | 
CC(C)(C)N(NC(=O)c1ccccc1C(F)(F)F)C(=O)c1ccccc1Cl | 15.6 | -0.73 |  | 3.02 | 
Cc1cc(C)cc(C(=O)N(NC(=O)c2cccc(O)c2)C(C)(C)C)c1 | 1 |  |  | 3.34 | 
Cc1cccc(C(=O)NN(C(=O)c2cc(C)cc(C)c2)C(C)(C)C)c1 | 36.8 | -0.23 | 48.2 | 3.98 | 
Cc1cc(C)cc(C(=O)N(NC(=O)c2ccc(C)c(C)c2C)C(C)(C)C)c1 | 54.2 | 0.07 |  | 4.88 | 
CC(C)(C)N(NC(=O)c1ccc(Cl)c(Cl)c1)C(=O)c1ccccc1Cl | 98.9 |  |  | 4.25 | 
Cc1cc(C)cc(C(=O)N(NC(=O)c2cc(F)c(F)cc2F)C(C)(C)C)c1 | 1.9 |  |  | 3.71 | 
CC(C)(C)N(NC(=O)c1cccc(C(F)(F)F)c1)C(=O)c1ccccc1Cl | 33.4 | -0.3 | 43.8 | 3.7 | 
CC(C)(C)N(NC(=O)c1cccc([N+](=O)[O-])c1)C(=O)c1ccccc1Cl | 16.6 | -0.7 | 64.4 | 2.73 | 
Cc1cc(C)cc(C(=O)N(NC(=O)c2ccccc2C)C(C)(C)C)c1 | 22.3 | -0.54 | 79.9 | 3.98 | 
CC(C)(C)N(NC(=O)c1ccc(Cl)cc1Cl)C(=O)c1ccccc1Cl | 40.7 | -0.16 |  | 3.71 | 
Cc1cc(C)cc(C(=O)N(NC(=O)c2ccc(C(C)C)cc2)C(C)(C)C)c1 | 49 | -0.02 |  | 4.91 | 
CC(C)(C)N(NC(=O)c1ccccc1[N+](=O)[O-])C(=O)c1ccccc1Cl | 1.7 |  |  | 1.99 | 
COc1cc2c(cc1OC)CN(CCc1ccc(NC(=O)c3cccc4c(=O)c5cccc(OC)c5[nH]c34)cc1)CC2 |  |  |  |  | 100
COc1cccc(C(=O)NN(C(=O)c2cc(C)cc(C)c2)C(C)(C)C)c1C [METHOXYFENOZIDE] | 32 | -0.33 | 44.3 |  | 
CCc1ccc(C(=O)NN(C(=O)c2cc(C)cc(C)c2)C(C)(C)C)cc1 [TEBUFENOZIDE] | 53.3 | 0.06 | 21.5 |  | 
